Results published in patent publication US20250154105A1, “POLYCYCLIC COMPOUND AND USE THEREOF” (TYK MEDICINES, INC., priority 2021, published 2025).

What was measured:
[1] = system: human pleural mesothelioma cells NCI-H226; assay: Cell anti-proliferation experiment (CCK8), NCI-H226; type: cell-based
Description: TEST EXAMPLE 1 CELL ANTI-PROLIFERATION EXPERIMENT
Determination of proliferation inhibition of YAP-TEAD inhibitor compounds on human pleural mesothelioma cells NCI-H226
Experimental materials and equipments: Human pleural mesothelioma cells NCI-H226 was purchased from NANJING COBIOER BIOSCIENCES CO., LTD. RPMI-1640 medium (Bio-Channel), DMSO (dimethyl sulfoxide), CCK8 (WST-8) Cell Assay Kit (Beyotime), 0.25% EDTA-Tripsin (trypsin digest), 1×PBS (phosphate buffer, PH7.2), 96-well plate (Corning), fetal bovine serum (FBS), 10,000 U/mL penicillin-G/streptomycin, high-speed freezing centrifuge (EPPENDORF 5810R), enzyme-linked immunosorbent assay (Tecan Spark).
1. Cell plating • A) Tumor cells were cultured to 80-90% density in RPMI-1640 (containing 10% FBS and 100 U/mL penicillin-G/streptomycin) under the condition of 37° C., 5% CO2 and saturated humidity. • B) The culture medium was removed from the 10 cm culture dish. • C) Cells were washed with 10 ml 1×PBS. • D) 4 ml of 0.25% EDTA-Tripsin was added to digest pancreatin for 5 minutes in an incubator at 37° C. and 5% CO2. Then the mixture was transferred to a 15 ml centrifuge tube, and centrifuged for 5 minutes at 200 g. The supernatant was discarded to obtain cell precipitation. • E) The cell precipitation was resuspended with 4 ml of […], counted and adjusted to 10,000 cells/ml. • F) The cell suspension was added to a 96-well plate with a volume of 100 μL per well and cultured overnight in an incubator at 37° C. and 5% CO2.
• Compound dilution • A) Preparation of gradient dilution solutions of the tested compounds: the tested compounds was configured to 1 mM stock solution. Then […] of stock solution was dissolved in 1.5 ml of DMSO-free culture solution, and then 3-fold continuous gradient dilution with 0.1% DMSO culture solution was performed to get a total of 9 concentrations. The diluted concentrations of the compound were as follows: 333.33 nM, 111.11 nM, 37.03 nM, 12.35 nM, 4.15 nM, 1.37 nM, 0.46 nM, 0.15 nM • B) After full mixing, 100 μL of culture compound solution was taken to replace the culture solution in the cell culture plate, with 4 duplicated wells at each concentration; • C) The cells were transferred to the incubator to incubate for 3 days.
• A) the cell culture plate was taken out and added with 10 μl of CCK-8 (WST-8) solution per well in the biosafety cabinet; • B) The cell culture plate was put back into the incubator and continued to incubate for 3 hours; • C) 450 nm wavelength was selected to measure absorbance value on TECAN enzyme linked immunosorbent assay detector.
The following formula was used to calculate the cell viability (% Cell Viability); • Cell Viability (%)=[A(Drug-added)-A(Blank)]/[A(0 Drug-added)-A(blank)][…] • A (Drug-added): The absorbance of wells containing cells, CCK8 solution, and drug solution. • A (Blank): The absorbance of wells containing culture medium and CCK8 solution, but without cells. • A (0 Drug-added): The absorbance of wells containing cells, CCK8 solution, but without drug solution. • Cell viability: Cell proliferation viability or cytotoxicity viability was determined by the IC50 value obtained by curve fitting using GraphPad Prism 8 software.

YAP-TEAD = YAP-TEAD inhibitor activity by Nano luciferase method (8xGTiiC-nLuc reporter in 293T cells); type: cell-based; settings: Homo sapiens, HEK-293T, 48 hours incubation, read-out: Nano-luciferase detection (IC50)
Description: EXAMPLE 2: YAP-TEAD INHIBITOR ACTIVITY WAS DETECTED BY NANO LUCIFERASE METHOD
(1) Experimental materials and equipments: 293T cells were purchased from NANJING COBIOER BIOSCIENCES CO., LTD. DMEM medium (High sugar, no phenol red, Bio-Channel), DMSO (dimethyl sulfoxide), Lipo6000™ transfection reagent (Beyotime), pGL3B-8xGTiiC-nLuc-CMV-fLuc plasmid, 0.25% EDTA-Tripsin (trypsin digest), 1×PBS (phosphate buffer, PH7.2), 96-well white cell culture plate (PerkinElmer), fetal bovine serum (FBS), 10,000 U/mL penicillin-G/streptomycin, high-speed freezing centrifuge (EPPENDORF 5810R), 37° C. CO2 incubator, Vi-cell® Cell Counter, Envision Microplate Reader (PerkinElmer).
The revived 293T cells were inoculated into a 10 cm culture dish and placed in an incubator with 5% CO2, and cultured at constant temperature of 37° C. To ensure transfection efficiency, cells at logarithmic phase (cell density of approximately 50%-70%) should be used.
On the day before transfection, cells at the logarithmic phase were digested with Trypsin-EDTA, and culture medium was added to terminate digestion. The cell suspension was prepared by blowing and mixing using a pipette.
Cell concentration was measured using Vi-cell, and the cell suspension was diluted to a suspension of 5*10^^5 cells per milliliter. After preparing the cell suspension, the suspension was gently mixed. 10 ml of liquid was added to a 10 cm culture dish. In this way, the number of cells in each 10 cm culture dish was 5*10^^6. The cells were incubated at a constant temperature of 37° C. for 1 day in an incubator with 5% CO2.
Two clean and sterile centrifuge tubes were taken and added with 750 μL opti-MEM Medium without antibiotics and serum, respectively. Then one tube was added with 15 μg Plasmid (pGL3B-8xGTiiC-nLuc-CMV-fLuc), and gently blew and mixed well using a pipette; the other tube was added with Lipo6000 transfection reagent, and gently blew and mixed using a pipette. After standing at room temperature for 5 minutes, the culture solution containing DNA was added gently to the culture solution containing Lipo6000 transfection reagent, and mixed well by gently inverting the centrifuge tube, then standing at room temperature for 5 minutes.
The above mixture was added evenly to a 10 cm culture dish and replaced with fresh complete culture medium after 6 hours of cultivation.
After transfection for 1 day, cells were digested with Trypsin EDTA, and culture medium was added to terminate the digestion. The cell suspension was prepared by blowing and mixing using a pipette.
Cell concentration was measured using Vi-cell, and the cell suspension was diluted to a suspension of 20000 cells per milliliter.
After preparing the cell suspension, the suspension was gently mixed, and added to 96-well plate with 100 μL per well. Thus, the density of the cells to be tested is 2000 cells per well.
The inoculated cell culture plate was placed in the incubator for cultivation, and after about 24 hour, compounds with concentration gradient were added.
10 mM compound stock solution was diluted with culture medium to 50 μM. Compound solution of 50 μM was added to the third column of the deep well plate, 216 μL of culture medium containing 0.5% DMSO was added to the fourth to eleventh columns, successively.
Gradient dilution: taking 100 μL of solution from the third column and adding the solution to the fourth column and mixing well; then taking 100 µL of solution from the fourth column again and adding the solution to the fifth column, repeating this operation until the eleventh column.
Taking 25 μL of compound solution from the deep well plate and adding it to a 96-well culture plate using a multi-channel pipette. Repeating four times on the 96 well plate for each compound. Finally, a concentration gradient of 1:3.16 was formed in the 96-well plate with a maximum concentration of 10,000 nM. The • (5) Addition of Nano Luciferase Detection Reagent and Read […]

SMILES | IC50 [1] [nM] | IC50 (YAP-TEAD) [nM]
CNS(=O)(=O)c1ccc2c(c1)c1nn(C)cc1c(=O)n2-c1cccc(C)c1 [Example T-79] | 1000 to 5000 | ≤ 1000
O=C(O)c1ccc2c(ccc(=O)n2-c2ccc(C(F)(F)F)cc2)c1 [Example T-1] | 1000 to 5000 | 1000 to 5000
COC[C@H](C)NC(=O)c1ccc2c(c1)c(=O)ccn2-c1ccc(C(F)(F)F)cc1 [Example T-35] | 1000 to 5000 | ≤ 1000
C[C@H](NC(=O)c1ccc2c(c1)c1c(c(=O)n2-c2ccc(C(F)(F)F)cc2)CCC(F)(F)C1)c1ccccn1 [Example T-307] | ≤ 1000 | ≤ 1000
C[C@H](NC(=O)c1ccc2c(c1)c1cccc(F)c1c(=O)n2-c1ccc(C(F)(F)F)cc1)c1ccccn1 [Example T-261] | ≤ 1000 | 1000 to 5000
C[C@@H](NC(=O)c1ccc2c(c1)c1cscc1c(=O)n2-c1ccc(C(F)(F)F)cc1)c1cccc(N)n1 [Example T-397] | ≤ 1000 | ≤ 1000
Cc1scc2c(=O)n(-c3ccc(C(F)(F)F)cc3)c3ccc(C(=O)N[C@@H](C)c4ccccn4)cc3c12 [Example T-296] | ≤ 1000 | ≤ 1000
C[C@H](NC(=O)c1ccc2c(c1)c1ccccc1c(=O)n2-c1ccc(C(F)(F)F)cc1)c1cccc(N)n1 [Example T-399] | ≤ 1000 | ≤ 1000
C[C@H](NC(=O)c1ccc2c(c1)c1nn(C)cc1c(=O)n2Cc1ccccc1)c1ccccn1 [Example T-271] | ≤ 1000 | ≤ 1000
C[C@H](NC(=O)c1ccc2c(c1)c1c(c(=O)n2C2CCC(F)(F)CC2)CCC1)c1ccccn1 [Example T-266] | ≤ 1000 | ≤ 1000
C[C@H](NC(=O)c1ccc2c(c1)c1c(c(=O)n2-c2ccc(C(F)(F)F)cc2)CCC1)c1cccc(N)n1 [Example T-425] | ≤ 1000 | ≤ 1000
C=CC(=O)Nc1ccc2c(c1)c1c(c(=O)n2-c2ccc(C(F)(F)F)cc2)CCC1 [Example T-424] | ≤ 1000 | ≤ 1000
CN(C)CCCNC(=O)c1ccc2c(c1)c1nn(C)cc1c(=O)n2-c1ccc(C(F)(F)F)cc1 [Example T-118] | 1000 to 5000 | 1000 to 5000

Next, values leading:

IC50 [1] [nM] | IC50 (YAP-TEAD) [nM] | SMILES
≤ 1000 | ≤ 1000 | C[C@H](NC(=O)c1ccc2c(c1)c1sccc1c(=O)n2-c1ccc(C(F)(F)F)cc1)c1cccc(N)n1 [Example T-429]
≤ 1000 | ≤ 1000 | C[C@H](NC(=O)c1ccc2c(c1)c1c(c(=O)n2-c2ccc(C(F)(F)F)cc2)CCC1(F)F)c1ccccn1 [Example T-293]
≤ 1000 | ≤ 1000 | C[C@H](NC(=O)c1ccc2c(c1)c1ncsc1c(=O)n2-c1ccc(C(F)(F)F)cc1)c1ccccn1 [Example T-330]
≤ 1000 | ≤ 1000 | C[C@H](NC(=O)c1ccc2c(ccc(=O)n2-c2ccc(C(F)(F)F)cc2)c1)c1cccc(N)n1 [Example T-423]
≤ 1000 | ≤ 1000 | COCC(C)NC(=O)c1ccc2c(c1)c1nn(C)cc1c(=O)n2-c1ccc(C(F)(F)F)cc1 (centres unmarked) [Example T-107]
≤ 1000 | ≤ 1000 | Cn1cc2c(=O)n(-c3ccc(C(F)(F)F)cc3)c3ccc(NC(=O)/C=C/CN4CCOCC4)cc3c2n1 [Example T-178]
≤ 1000 | ≤ 1000 | C[C@H](NC(=O)c1ccc2c(c1)cc(C(F)F)c(=O)n2-c1ccc(C(F)(F)F)cc1)c1cccc(N)n1 [Example T-417]
≤ 1000 | ≤ 1000 | Cn1cc2c(=O)n(-c3ccc(C(F)(F)F)cc3)c3ccc(C(=O)NC(C)(C)C)cc3c2n1 [Example T-101]
≤ 1000 | ≤ 1000 | C=CC(=O)Nc1cnc2c(c1)c1ccccc1c(=O)n2-c1ccc(C(F)(F)F)cc1 [Example T-242]
≤ 1000 | ≤ 1000 | C[C@H](NC(=O)c1ccc2c(c1)c1nn(C)cc1c(=O)n2-c1ccc(C(F)(F)F)cc1)c1cccc(C#N)n1 [Example T-152]
≤ 1000 | ≤ 1000 | CNS(=O)(=O)c1ccc2c(c1)-c1nn(C)cc1CN2c1ccc(C(F)(F)F)cc1 [Example T-18]
≤ 1000 | ≤ 1000 | Cc1occ2c(=O)n(-c3ccc(C(F)(F)F)cc3)c3ccc(C(=O)N[C@@H](C)c4ccccn4)cc3c12 [Example T-288]
≤ 1000 | ≤ 1000 | Cn1cc2c(=O)n(-c3ccc(C(F)(F)F)cc3)c3ccc(C(=O)NCc4ccccn4)cc3c2n1 [Example T-113]
≤ 1000 | ≤ 1000 | Cc1scc2c(=O)n(-c3ccc(C(F)(F)F)cc3)c3ccc(C(=O)N[C@@H](C)c4ccccn4)nc3c12 [Example T-385]
≤ 1000 | ≤ 1000 | CN(C)C(=O)Nc1ccc2c(c1)c1nn(C)cc1c(=O)n2-c1ccc(C(F)(F)F)cc1 [Example T-182]
≤ 1000 | ≤ 1000 | C[C@H](NC(=O)c1ccc2c(c1)c1ncoc1c(=O)n2-c1ccc(C(F)(F)F)cc1)c1ccccn1 [Example T-396]
≤ 1000 | ≤ 1000 | C[C@H](NC(=O)c1ccc2c(c1)c1nscc1c(=O)n2-c1ccc(C(F)(F)F)cc1)c1ccccn1 [Example T-329]
≤ 1000 | ≤ 1000 | C=C(F)C(=O)Nc1ccc2c(c1)c1nn(C)cc1c(=O)n2-c1ccc(C(F)(F)F)cc1 [Example T-235]
